Assay results as given in patent US20240268381A1, “Agricultural Chemical Formulation” (ExxonMobil Chemical Patents Inc., priority 2021, published 2024).

What was measured:
Format in all cases: physicochemical
[1] = Solvent solubility in water; conditions: 20 g solvent mixed with 20 g water, phases separated 24 hours, water layer tested by gas chromatography
Method: (§1) The following properties of the solvents were tested: • Kinematic viscosity at 25° C. […] The funnel containing the mixture was inverted several times. The water and solvent phases were allowed to separate for 24 hours, resulting in two distinct phases. For water solubility in solvent, the solvent layer was transferred to a sample vial and was tested for water content according to ASTM E1064. For solvent solubility in water, the water layer was transferred to a sample vial and was tested by a gas chromatography test method for solvent content. Water content, water solubility, and solvent solubility in water were not tested for solvents C2-C5.

[2] = Solvency test, active ingredient MCPA; conditions: wt % active ingredient in solution; concentrations below 15 wt % not tested
Method: (§2) Solvency of solvents E1-E5 and C1-C8 was tested by dissolving various solid active ingredients in each solvent. The following pesticides were tested as active ingredients: trifluralin, fluroxypyr, bromoxynil octanoate, and 2-methyl-4-chlorophenoxyacetic acid (MCPA). Solvency was characterized by the weight ratio of an active ingredient in a solvent and was determined by adding 0.5 gram of active ingredient to a vial equipped with a stir bar and then charging the solvent to achieve a desired concentration. The vials were capped and placed into a water bath kept at a temperature 5 to 10° C. below the melting point of tested pesticide. The mixture was stirred in the vial for 24 hours. If the active ingredient was fully dissolved, the mixture was transferred to a room temperature water bath. If no active ingredient crystals were formed, a higher concentration of active ingredient was tested. Conversely, if active ingredient crystals were formed, a lower concentration of active ingredient was tested. Solubility was recorded as the highest concentration of active ingredient in the tested solvent with no formation of crystals. Concentrations were tested at a 5% interval. For example, if the active ingredient was dissolved at 50%, 55% would be the next concentration to be tested. Concentrations below 15 wt % were not tested.

[3] = Solvency test, active ingredient bromoxynil octanoate; conditions: wt % active ingredient in solution; highest concentration with no crystals at room temperature
Method: as §2

[4] = Density at 25° C. (ASTM D4052)
[5] = Solvency test, active ingredient fluroxypyr; conditions: wt % active ingredient in solution; highest concentration with no crystals at room temperature
Method: as §2

[6] = Water solubility in solvent; conditions: 20 g solvent mixed with 20 g water, phases separated 24 hours, solvent layer tested
Method: as §1

[7] = Water content of the solvents, Karl Fischer titration (ASTM E1064)
Method: as §1

[8] = Solvency test, active ingredient trifluralin; conditions: wt % active ingredient in solution; highest concentration with no crystals at room temperature
Method: as §2

[9] = Pour point (ASTM D5950)
Method: as §1

[10] = Hydrolytic stability in pH 4.5 or pH 8.5 buffer; conditions: 54° C., 14 days, 13C NMR; for Hydrolysis at pH 4.5: pH 4.5 buffer; for Hydrolysis at pH 8.5: pH 8.5 buffer
Method: Hydrolytic stability was characterized by mixing the tested solvent with an excess of pH 4.5 or pH 8.5 buffer in a vial which was placed in a heated water bath (54° C.). After 14 days, the vial was cooled to room temperature and the content was allowed to separate into aqueous and organic (solvent) phases. The solvent phase was transferred to a clean vial and sodium sulfate was added to remove residual water. The mixture was filtered to obtain the solvent filtrate which was analyzed by ^13C NMR to measure the amount of hydrolysis products (acid or alcohol), if any.
Hydrolytic stability for solvents E3, C1, C2, and C6-C8 was not tested. No hydrolysis is expected for aromatic solvent C2 due to lack of hydrolysable bonds.

[11] = Kinematic viscosity at 25° C. (ASTM D7042)
Method: as §1

Row | SMILES | Solvent solubility in water [1] | Solvency, MCPA [2] | Solvency, Bromoxynil Octanoate [3] | Density at 25° C. [4] | Solvency, Fluroxypyr [5] | Water solubility in solvent [6] | Water content [7] | Solvency, Trifluralin [8] | Pour Point [9] | Hydrolysis at pH 4.5 [10] | Hydrolysis at pH 8.5 [10] | KV25 [11]
1 | CCC(C)OC(=O)c1ccccc1 (centres unmarked) [Solvent E1, Secondary butyl benzoate] | 0.008 wt % | <15 wt % | 73.0 wt % | 0.992 g/mL | 61.3 wt % | 0.386 vol % | 499 ppm w/w | 72.6 wt % | −81 °C | <1.0% | 3.7% | 3.38 cSt
2 | CC(=O)OCCCCCCC(C)C [Solvent C8, isononyl acetate] | <0.001 wt % | <15 wt % | 67.5 wt % | 0.867 g/mL | <15 wt % | 0.369 vol % | 722 ppm w/w | 72.9 wt % | −102 °C |  |  | 2.15 cSt
3 | CCCCCCCCCC(=O)N(C)C [Solvent C5, linear N,N-dimethyldecanamide, reference compound] |  | <15 wt % | 60.2 wt % | 0.876 g/mL | 62.2 wt % |  |  | 62.4 wt % | −6 °C | <1.0% | <1.0% | 5.33 cSt
4 | CC(=O)OCCCCCC(C)C [Solvent C7, isooctyl acetate] | 0.005 wt % | <15 wt % | 70.9 wt % | 0.868 g/mL | 60.2 wt % | 0.448 vol % | 699 ppm w/w | 77.3 wt % | −105 °C | 12.6% | <1.0% | 1.69 cSt
5 | CN(C)C(=O)CCCCCC(C)(C)C [Solvent E5, N,N-dimethyl neodecanamide] | 0.141 wt % |  | 63.5 wt % | 0.883 g/mL | 63.0 wt % | 2.457 vol % | 589 ppm w/w | 65.0 wt % | −72 °C | <1.0% | <1.0% | 7.29 cSt
6 | CC(C)CCCCCOC(=O)c1ccccc1 [Solvent E3, Isooctyl benzoate] | <0.001 wt % | <15 wt % | 68.6 wt % | 0.962 g/mL | 50.8 wt % | 0.265 vol % | 113 ppm w/w | 64.1 wt % |  |  |  | 6.53 cSt
7 | CC(C)(C)C(=O)OCc1ccccc1 [Solvent E4, Benzyl pivalate] | 0.010 wt % | <15 wt % | 68.8 wt % | 0.966 g/mL | 66.0 wt % | 0.422 vol % | 232 ppm w/w | 69.5 wt % | −90 °C | 0.3% | <1.0% | 3.40 cSt
8 | CCCCOC(=O)c1ccccc1 [Solvent C3, Butyl benzoate, reference compound] |  | <15 wt % | 69.7 wt % | 1.001 g/mL |  |  |  | 62.8 wt % | −36 °C | 0.5% | 6.7% | 3.11 cSt
9 | CCC(C)OC(=O)c1ccc(C(=O)OC(C)CC)o1 (centres unmarked) [Solvent C1, Di-sec butyl furan-2,5-dicarboxylate, reference compound] | 0.003 wt % | <15 wt % | 48.3 wt % | 1.047 g/mL | <15 wt % | 0.699 vol % | 269 ppm w/w | 37.1 wt % |  |  |  | 66.27 cSt
10 | O=C(OC1CCCCC1)c1ccccc1 [Solvent E2, Cyclohexyl benzoate] | 0.007 wt % | <15 wt % | 68.3 wt % | 1.042 g/mL | 64.8 wt % | 0.394 vol % | 102 ppm w/w | 66.8 wt % | −54 °C | 2.7% | 1.7% | 11.96 cSt
11 | CC(=O)OCc1ccccc1 [Solvent C4, Benzyl acetate, reference compound] |  | 15.1 wt % | 72.9 wt % | 1.051 g/mL | 59.8 wt % |  |  | 61.2 wt % | −90 °C | 22.5% | 6.8% | 2.20 cSt
12 | CC(C)CCCCCCCOC(=O)c1ccccc1 [Solvent C6, isodecyl benzoate] | <0.001 wt % | <15 wt % | 62.1 wt % | 0.949 g/mL |  | 0.173 vol % | 332 ppm w/w | 54.5 wt % | −69 °C |  |  | 9.60 cSt
